Common to all, as to assay type: cell-based, human
One assay has as its system MCF-7 cells. Put plainly: Wound healing assay, MCF-7. The following applies: IC50 concentration, observed for 72 h. The method, then:
(§1) This experiment consisted in making a “wound” in a confluent monolayer of HCT-116 and MCF-7 cells, which were next treated with the test compounds at their IC50 concentrations. […] In the control, cell migration from the edges of the wound is visible, gradually filling the gap. After 72 h, the wounds are almost completely covered with cells. In the same way, cell migration is observed in healthy NHDF cells.
(§2) To analyze the migration properties of cells exposed to test compounds, a wound-healing assay was performed as reported in the literature. The cells were seeded into 6-well plates at a density of 3 × 10^5 (HCT-116) or 4 × 10^5 (MCF-7, NHDF-Neo) per well (3 mL) and allowed to attach for 24 h under standard conditions with 5% CO2 at 37 °C. After forming a confluent monolayer, a linear scratch in each sample with a 200 µL pipette tip was made and the first photo at time zero was taken. The cells were washed with PBS and then treated with solutions of test compounds in a fresh medium at a dose equal to their IC50 values. Control cells were grown with fresh medium supplemented with 0.5% DMSO. The cells were incubated and monitored for 72 h under standard conditions with 5% CO2 at 37 °C. Cell monitoring and photos were taken using Live Cell Movie Analyzer, JuLI™ Br & FL (NanoEnTek Inc., Seoul, Korea).

Another assay has as its system HCT-116 cells. Put plainly: Wound healing assay, HCT-116. Particulars: IC50 concentration, observed for 72 h. The method, then: as §1, §2
The subject of the next assay is NHDF-Neo cells. Put plainly: Cell cycle analysis by flow cytometry, NHDF-Neo. The following applies: IC50 dose, 24 h. The source says: After determining the type of cell death caused by the test compounds, the flow cytometry technique was used to study their influence on potential changes in the course of the cell cycle of the HCT-116, MCF-7, and NHDF-Neo lines. The cell cycle is the sequence of growth and division of cells, both normal and cancerous. This process begins from the resting phase (G0) through the active growth phases (G1, S, G2), leading to mitosis (M) in which the cell’s nucleus divides. […] After this time, cells were harvested and treated with a buffer to lysate the cells and isolate the cell nuclei. Propidium iodide was used to assess the amount of DNA in particular phases of the cell cycle. Histograms of DNA content in cells are presented in the Supplementary Materials (Figure S74).
The cell cycle and the type of cell death induced by the test compounds were measured by using flow cytometry according to the manufacturer’s protocol. The cells were seeded into 6-well plates at a density of 3 × 10^5 (HCT-116) or 4 × 10^5 (MCF-7, NHDF-Neo) per well (3 mL) and allowed to attach for 24 h under standard conditions with 5% CO2 at 37 °C. The following day, the medium was removed and cells were treated with solutions of test compounds in fresh medium at a dose equal to their IC50 values. Control cells were grown with fresh medium supplemented with 0.5% DMSO. After 24 h of incubation, the cells were collected by trypsinization. Then, samples were centrifuged (3 min, 2000 rpm, RT) and washed with PBS, after which the cells were centrifuged again (3 min, 2000 rpm, RT) and the supernatant was carefully removed. The resulting precipitate contained cells, which were used for flow cytometry experiments.
For cell cycle analysis, the cells were suspended in 300 μL of hypotonic buffer (consisting of: sodium citrate dihydrate 1 g/L, propidium iodide (PI) 1 mg/mL, RNAse A 10 mg/mL (EURx, Gdańsk, Poland), Triton X-100 1:9), mixed gently and incubated in the dark at room temperature for 20–30 min. […]

Consider `CC(=O)OC1O[C@H](Cn2cc(COc3cccc4cccnc34)nn2)[C@@H](OC(C)=O)[C@H](OC(C)=O)[C@H]1OC(C)=O` (stereo partly drawn) [Compound A-1], for which the “cell migration, MCF-7” value in the assay with MCF-7 cells is “significantly slower migration”. The “cell migration, HCT-116” value in the assay on HCT-116 cells is recorded as “significantly slower migration”. In addition, the “cell cycle phase distribution in words, NHDF-Neo” value in the assay with NHDF-Neo cells is given as “slightly decreased the number of cells in the G2/M phase with a simultaneous slight increase in the percentage of cells in the G0/G1 phase”.

As for `OC1O[C@H](Cn2cc(COc3cccc4cccnc34)nn2)[C@@H](O)[C@H](O)[C@H]1O` (stereo partly drawn) [Compound A-2], the “cell migration, MCF-7” value in the assay with MCF-7 cells is “significantly slower migration”. Moreover, the “cell migration, HCT-116” value in the assay on HCT-116 cells is “significantly slower migration”. Also, the “cell cycle phase distribution in words, NHDF-Neo” value in the assay on NHDF-Neo cells is given as “slightly decreased the number of cells in the G2/M phase with a simultaneous slight increase in the percentage of cells in the G0/G1 phase”.
